# Patent US6703229B2, “Aryl propenal double bond reductase” (Washington State University Research Foundation, priority 2000, dated 2004)
# Key:
# reverse transcriptase = reverse transcriptase (Human immunodeficiency virus type 1 group M subtype B, UniProt P04585); conditions: cited from earlier work
# [1] = tested on: aryl propenal double bond reductase (SEQ ID NO:2); assay: Enzyme assay of recombinant aryl propenal double bond reductase (HPLC of products); assay type: biochemical, Pinus taeda; conditions: for reduction of the aryl propenal substrate by the recombinant reductase: recombinant enzyme expressed from SEQ ID NO:1, in the presence of [4R]-NADPH
# Experimental: Enzyme assays—Each non-radioactive assay (250 μl) consisted of buffer (50 mM Tris-HCl, pH 8.0), substrate (12.5 mM in DMSO, 10 μl), NADPH (25 mM in H2O, 10 μl), and the enzyme preparation (30 μl containing 5 mM DTT). Controls were performed using either denatured enzyme (boiled 96° C., 10 min) or in absence of enzyme. After 1 hour incubation at 30° C. with shaking, the reaction mixture was extracted with EtOAc (500 μl×2) with the EtOAc solubles combined and evaporated to dryness in vacuo. The EtOAc solubles were dissolved in CH3CN (10 μl) and then in 3% AcOH (90 μl), and subjected to reverse-phase HPLC with UV detection (280 nm).
# Radioactive assays were performed in the same way as the non-radioactive assay with the following exceptions: the reaction was initiated by addition of [4S-^3H] or [4R-^3H]NADPH (25 mM in H2O, 666.7 kBq 10 μl). The EtOAc solubles were reconstituted in CH3CN/H2O and subjected to reverse-phase HPLC as described above with 0.5 ml fractions collected and an aliquot (100 μl) of each removed for scintillation counting to determine the level of incorporation of ^3H into the products.
# Reversed phase HPLC separation of substrates and products—Separation of dehydrodiconiferyl alcohol (DDC), dihydrodehydrodiconiferyl alcohol (DDDC), dehydrodiconiferyl aldehyde (DDCA), dihydrodehydrodiconiferyl aldehyde (DDDCA) coniferyl alcohol (CA), dihydroconiferyl alcohol (DCA), coniferyl aldehyde (CAL), and dihydroconiferyl aldehyde (DCAL) was carried out using a reverse-phase column (Symmetry Shield RP8, 3.9×150 mm, Waters) as follows: CH3CN-3% AcOH in H2O (1:9) from 0 to 5 min, then linear gradient to 1:3 between 5 to 30 min, and finally linear gradient to 100% CH3CN over 25 min, at a flow rate of 1 ml/min.
# cAMP-phosphodiesterase = conditions: cited from earlier work
molecule,measurement,setting,value
COc1cc(C[C@H]2C(=O)OC[C@@H]2Cc2ccc(OC)c(OC)c2)ccc1O [(−)-arctigenin],effectiveness against HIV (reverse transcriptase inhibitory activity),reverse transcriptase,effective against HIV
(−)-trachelogenin,effectiveness against HIV (reverse transcriptase inhibitory activity),reverse transcriptase,effective against HIV
COc1cc(/C=C/C=O)ccc1O [coniferyl aldehyde],reduction of the aryl propenal substrate by the recombinant reductase,[1],capable of reducing coniferyl aldehyde to dihydroconiferyl aldehyde
CC(Cc1ccc(O)c(O)c1)C(C)Cc1ccc(O)c(O)c1 (stereo not shown) [nordihydroguaiaretic acid],effectiveness against HIV (reverse transcriptase inhibitory activity),reverse transcriptase,effective against HIV
COc1cc([C@@H]2Oc3c(OC)cc(/C=C/C=O)cc3[C@H]2CO)ccc1O [dehydrodiconiferyl aldehyde],reduction of the aryl propenal substrate by the recombinant reductase,[1],regiospecifically reduce the double-bond
COc1cc(C[C@H]2COC(=O)[C@@H]2Cc2ccc(O)c(OC)c2)ccc1O [matairesinol],inhibition of cAMP-phosphodiesterase,cAMP-phosphodiesterase,inhibit cAMP-phosphodiesterase
"aryl propenal double bond reductase (SEQ ID NO:2): Pinus taeda aryl propenal double bond reductase encoded by cDNA SEQ ID NO:1, expressed in E. coli (protein) MEQRVPNRELILVAYANEGPVTDSHLNIRETKLDLGSVGKDGSSGDVAVQNLWISVDPYLRQLMKESDDGLYLPSFPLNQAIRSILVGKVVASANPAFEVGDIVSGFYQVSEYAIVPRGDLMKIDTSVVKPSDYLGLLGMPALTAWAGFIIVGEPKPGDEVFVSAAAGSVGMLVGQLAKIKSCRVVGSAGSDQKVKLLKEFGFDDAFNYKCETDLDAALSRYFPRGIDIYFDNVGGRMLEAVLNHINMKARIPLCGMISQYNQEWKQRFGVRNLLNLVGKCAKMEGFMSGQYHHRMGEFFEEMTGYIKQGKIKYKEDVKVGLDSFLEAFNSMFTGENIGKPVIYLGPPLPK",enzymatic activity of the expressed reductase,"[1]; expressed in E. coli, GST fusion removed",enzymatically active
